One data set concerns serotonin 5-HT2. The conditions noted are these: cited from earlier work.
Data set [1] can be described thus: Light stability study of film-coated sertindole tablets (HPLC degradation products). It is filed as physicochemical. The conditions noted are these: film-coated tablets with white film-coating layer containing titanium dioxide, 2-4% film-layer relative to tablet core weight. The source says:
10 tablets of each sample were placed in a light cabinet (Heraeus Suntest CPS+) and were exposed to light providing an overall illumination of not less than 1.2 million lux hours, and an integrated near ultraviolet energy of not less than 200 watt hours/m^2. The tablets were placed directly in petri dishes in a single layer. […] The dark control was placed beside the sample and was protected against light, wrapped in aluminium foil. After light exposure the tablets (sample and dark control) were analysed for degradation products by HPLC analysis.
The samples of 10 tablets were disintegrated by the means of 0.1 M acetic acid. Next acetonitrile was added for extraction and subsequently the samples were made to volume with methanol/water (50/50). Final concentration: 0.4 mg/ml.
Samples from the light stability studies were analysed by HPLC.
Reversed phase chromatography was performed using a LiChrospher 100 RP-8, 5 μm, 250×4 mm ID with pre-column: LiChrospher 100 RP-8, 5 μm.
The mobile phase consisted of Tetrahydrofurane/acetonitrile/25 mM phosphate buffer pH 7.2 (7/43/50). […]
Quantification of the degradation products was done from area %, using the normalization factor 0.9 for Lu 26-115 (1-(2-(4-(5-Chloro-1-(4-fluorophenyl)-1H-indol-3-yl)-1-piperidinyl-1-oxide)ethyl)-2-imidazolidinone) and the normalization factor 1.0 for other impurities.

The conditions of data set [2]: clinical development programme; cited from earlier work.
The target of a further data set is dopamine D2 (Homo sapiens, UniProt P14416). As to conditions: cited from earlier work.
A further data set deals with α1-adrenergic receptors. As to conditions: cited from earlier work.

Molecules are shown by their SMILES.

dopamine D2, sequence (P14416 whole entry): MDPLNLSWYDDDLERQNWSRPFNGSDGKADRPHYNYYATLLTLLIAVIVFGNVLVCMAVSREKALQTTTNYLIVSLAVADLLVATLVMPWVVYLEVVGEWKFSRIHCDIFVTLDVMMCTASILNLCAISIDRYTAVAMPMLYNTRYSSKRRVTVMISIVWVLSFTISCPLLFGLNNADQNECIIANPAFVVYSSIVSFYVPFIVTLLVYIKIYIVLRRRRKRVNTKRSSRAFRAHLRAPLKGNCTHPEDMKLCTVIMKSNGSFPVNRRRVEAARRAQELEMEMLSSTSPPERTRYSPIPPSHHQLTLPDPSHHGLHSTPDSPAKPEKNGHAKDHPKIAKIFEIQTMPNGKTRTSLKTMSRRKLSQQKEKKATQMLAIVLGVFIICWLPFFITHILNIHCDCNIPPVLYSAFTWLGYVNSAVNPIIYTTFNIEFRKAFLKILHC

Consider `O=C1NCCN1CCN1CCC(c2cn(-c3ccc(F)cc3)c3ccc(Cl)cc23)CC1` [Sertindole], for which the “affinity for serotonin 5-HT2” value in the data set with serotonin 5-HT2 is “high affinity”. The light sensitivity result in data set [1] is on record as “undergoes a light-induced degradation process”. Also, in data set [2], the “effect on symptoms of schizophrenia” value is “effect against both positive and negative symptoms of schizophrenia”; the “incidence of extrapyramidal side effects” value is given as “placebo-level incidence”; the tolerability entry is “well-tolerated”. The “affinity for dopamine D2” value at dopamine D2 was “high affinity”. Also, the “affinity for α1-adrenergic receptors” value in the data set on α1-adrenergic receptors is “high affinity”.
